Data: the supplement of paper PMC10307832

Assays:
Assay in all cases: relative viability (nuclei count vs DMSO), 5 days (fraction); higher = more cells survive
Seliciclib + Crizotinib = compound: CC[C@H](CO)Nc1nc(NCc2ccccc2)c2ncn(C(C)C)c2n1 [Seliciclib] + C[C@@H](Oc1cc(-c2cnn(C3CCNCC3)c2)cnc1N)c1c(Cl)ccc(F)c1Cl [Crizotinib] (partner 1 µM)
Summary of the method: (§1)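 Each reported value is a median over duplicate plates. It expresses relative viability: treated-well nuclei count divided by vehicle-well nuclei count. Lung cancer cell lines in 1536-well plates were dosed by pin tool a day after seeding, alone with one drug or with a fixed anchor-drug dose plus five library-drug doses (not always all listed) in √10 steps, and nuclei were counted after 5 days.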

Seliciclib + Phenformin = compound: CC[C@H](CO)Nc1nc(NCc2ccccc2)c2ncn(C(C)C)c2n1 [Seliciclib] + N=C(N)NC(=N)NCCc1ccccc1 [Phenformin] (partner 250 µM)
Summary of the method: as §1

Seliciclib + Navitoclax = compound: CC[C@H](CO)Nc1nc(NCc2ccccc2)c2ncn(C(C)C)c2n1 [Seliciclib] + CC1(C)CCC(c2ccc(Cl)cc2)=C(CN2CCN(c3ccc(C(=O)NS(=O)(=O)c4ccc(N[C@H](CCN5CCOCC5)CSc5ccccc5)c(S(=O)(=O)C(F)(F)F)c4)cc3)CC2)C1 [Navitoclax] (partner 0.5 µM)
Summary of the method: as §1

Seliciclib + Decitabine = compound: CC[C@H](CO)Nc1nc(NCc2ccccc2)c2ncn(C(C)C)c2n1 [Seliciclib] + Nc1ncn([C@H]2C[C@H](O)[C@@H](CO)O2)c(=O)n1 [Decitabine] (partner 2 µM)
Summary of the method: as §1

| Cell Line | relative viability (Seliciclib + Crizotinib; first compound 0.08 µM) | relative viability (Seliciclib + Crizotinib; first compound 0.253 µM) | relative viability (Seliciclib + Crizotinib; first compound 0.8 µM) | relative viability (Seliciclib + Crizotinib; first compound 2.53 µM) | relative viability (Seliciclib + Crizotinib; first compound 8 µM) | relative viability (Seliciclib + Phenformin; first compound 0.08 µM) | relative viability (Seliciclib + Phenformin; first compound 0.253 µM) | relative viability (Seliciclib + Phenformin; first compound 0.8 µM) | relative viability (Seliciclib + Phenformin; first compound 2.53 µM) | relative viability (Seliciclib + Phenformin; first compound 8 µM) | relative viability (Seliciclib + Navitoclax; first compound 0.08 µM) | relative viability (Seliciclib + Navitoclax; first compound 0.253 µM) | relative viability (Seliciclib + Navitoclax; first compound 0.8 µM) | relative viability (Seliciclib + Navitoclax; first compound 2.53 µM) | relative viability (Seliciclib + Navitoclax; first compound 8 µM) | relative viability (Seliciclib + Decitabine; first compound 0.08 µM) | relative viability (Seliciclib + Decitabine; first compound 0.253 µM) | relative viability (Seliciclib + Decitabine; first compound 0.8 µM) | relative viability (Seliciclib + Decitabine; first compound 2.53 µM) | relative viability (Seliciclib + Decitabine; first compound 8 µM) |
| --- | --- | --- | --- | --- | --- | --- | --- | --- | --- | --- | --- | --- | --- | --- | --- | --- | --- | --- | --- | --- |
| NCI-H2087 | 0.909 | 0.833 | 0.956 | 0.828 | 0.846 | 0.537 | 0.495 | 0.411 | 0.41 | 0.385 | 0.914 | 0.879 | 0.991 | 0.879 | 0.696 | 0.284 | 0.313 | 0.247 | 0.227 | 0.221 |
| NCI-H2126 | 0.988 | 0.979 | 0.965 | 0.992 | 0.861 | 0.518 | 0.489 | 0.518 | 0.359 | 0.467 | 0.817 | 0.799 | 0.844 | 0.878 | 0.787 | 0.567 | 0.565 | 0.606 | 0.55 | 0.47 |
| NCI-H2170 | 1.1 | 0.873 | 1.18 | 1.4 | 1.11 | 0.393 | 0.489 | 0.354 | 0.436 | 0.411 | 0.671 | 0.338 | 0.596 | 0.667 | 0.523 | 0.453 |  | 0.452 | 0.537 | 0.442 |
| NCI-H2347 | 0.711 | 0.741 | 0.742 | 0.763 | 0.595 | 0.536 | 0.397 | 0.319 | 0.298 | 0.408 | 0.763 | 0.801 | 0.73 | 0.859 | 0.568 | 0.66 | 0.522 | 0.597 | 0.602 | 0.597 |
| NCI-H2405 | 0.755 | 0.841 | 0.807 | 0.877 | 0.794 | 0.362 | 0.399 | 0.319 | 0.324 | 0.355 | 0.666 | 0.71 | 0.754 | 0.717 | 0.631 | 0.758 | 0.68 | 0.742 | 0.63 | 0.716 |
| NCI-H3122 | 0.294 | 0.258 | 0.311 | 0.231 | 0.301 | 0.374 | 0.439 | 0.368 | 0.384 | 0.353 | 1.02 | 1.07 | 1.01 | 1.03 | 0.903 | 0.399 | 0.234 | 0.479 | 0.472 | 0.294 |
| PC-3 [JPC-3] | 0.998 | 0.994 | 0.95 | 0.921 | 0.861 | 0.477 | 0.459 | 0.453 | 0.49 | 0.433 | 0.829 | 0.84 | 0.77 | 0.786 | 0.751 | 0.819 | 0.883 | 0.906 | 0.809 | 0.767 |
| PC-14 | 0.865 | 0.846 | 0.78 | 0.991 | 0.759 | 0.665 | 0.431 | 0.553 | 0.463 | 0.319 | 0.988 | 1.04 | 0.959 | 1.09 | 0.767 | 0.211 | 0.228 | 0.222 | 0.252 | 0.25 |
| RERF-LC-KJ | 0.803 | 0.787 | 0.785 | 0.85 | 0.786 | 0.44 | 0.432 | 0.401 | 0.44 | 0.345 | 0.759 | 0.673 | 0.812 | 0.804 | 0.651 | 0.711 | 0.671 | 0.737 | 0.637 | 0.65 |
| SK-LU-1 | 0.874 | 0.987 | 1.03 | 0.892 | 0.688 | 0.532 | 0.582 | 0.647 | 0.435 | 0.413 | 0.866 | 0.973 | 0.575 | 0.978 | 0.627 | 0.614 | 0.544 | 0.649 | 0.614 | 0.542 |
| SK-MES-1 | 1 | 1 | 0.891 | 0.96 | 0.914 | 0.686 | 0.755 | 0.619 | 0.672 | 0.635 | 1.24 | 1.34 | 1.11 | 1.04 | 0.715 | 0.386 | 0.371 | 0.349 | 0.451 | 0.458 |
| SW 1573 | 0.823 | 0.759 | 0.77 | 0.847 | 0.642 | 0.373 | 0.24 | 0.346 | 0.384 | 0.311 | 1.09 | 0.732 | 0.901 | 0.86 | 0.655 | 0.497 | 0.515 | 0.474 | 0.408 | 0.663 |
| UMC-11 | 0.654 | 0.558 | 0.672 | 0.712 | 0.404 | 0.341 | 0.343 | 0.322 | 0.272 | 0.232 | 0.316 | 0.279 | 0.313 | 0.29 | 0.25 | 0.542 | 0.392 | 0.612 | 0.606 | 0.526 |
